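Tested at 5 concentrations; 48 h exposure; 96-well plates; endpoints linearly interpolated, else capped at highest concentration. Abbreviation: GI50, concentration required for 50% inhibition of growth.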 Calls of active or inactive are those of the source. Cut-off read from the data, not from the text of the source: active = GI50 up to about 1.1 µM and inactive = higher.
Experiments:
Assay in all cases: inhibition of tumour cell growth, NCI panel, 48 h
786-0 = system: 786-0
A498 = system: A498
A549 = system: A549
ACHN = system: ACHN
BT-549 = system: BT-549
CAKI-1 = system: CAKI-1
CCRF-CEM = system: CCRF-CEM
COLO 205 = system: COLO 205
DU-145 = system: DU-145
EKVX = system: EKVX
HCC 2998 = system: HCC 2998
HCT-116 = system: HCT-116
HCT-15 = system: HCT-15
HL-60 = system: HL-60
HOP-62 = system: HOP-62
HOP-92 = system: HOP-92
HT-29 = system: HT-29
Hs-578T = system: Hs-578T
IGROV-1 = system: IGROV-1
K562 = system: K562
KM12 = system: KM12
LOX IMVI = system: LOX IMVI
M14 = system: M14
MCF7 = system: MCF7
MDA-MB-435 = system: MDA-MB-435
MDA-N = system: MDA-N
MOLT-4 = system: MOLT-4
Malme-3M = system: Malme-3M
NCI-H226 = system: NCI-H226
NCI-H23 = system: NCI-H23
NCI-H460 = system: NCI-H460
NCI-H522 = system: NCI-H522
NCI/ADR-RES = system: NCI/ADR-RES
OVCAR-3 = system: OVCAR-3
OVCAR-4 = system: OVCAR-4
OVCAR-5 = system: OVCAR-5
OVCAR-8 = system: OVCAR-8
PC-3 = system: PC-3
RPMI-8226 = system: RPMI-8226
RXF 393 = system: RXF 393
SF-268 = system: SF-268
SF-295 = system: SF-295
SF-539 = system: SF-539
SK-MEL-28 = system: SK-MEL-28
SK-MEL-2 = system: SK-MEL-2
SK-MEL-5 = system: SK-MEL-5
SK-OV-3 = system: SK-OV-3
SN12C = system: SN12C
SNB-19 = system: SNB-19
SNB-75 = system: SNB-75
SR = system: SR
SW-620 = system: SW-620
T47D = system: T47D
UACC-257 = system: UACC-257
UACC-62 = system: UACC-62
UO-31 = system: UO-31
MDA-MB-231 = system: MDA-MB-231
TK-10 = system: TK-10
U-251 = system: U-251

C[C@]12CC[C@H](O)CC1=CC[C@@H]1[C@@H]2CC[C@]2(C)C(=N/O)/C(=C/c3ccc([N+](=O)[O-])cc3)C[C@@H]12
GI50 (786-0): 3.03 µM (inactive) | GI50 (A498): 3.33 µM (inactive) | GI50 (A549): 0.782 µM (active) | GI50 (ACHN): 4.13 µM (inactive) | GI50 (BT-549): 10.5 µM (inactive) | GI50 (CAKI-1): 7.05 µM (inactive) | GI50 (CCRF-CEM): 5.94 µM (inactive) | GI50 (COLO 205): 3.53 µM (inactive) | GI50 (DU-145): 6.73 µM (inactive) | GI50 (EKVX): 2.59 µM (inactive) | GI50 (HCC 2998): 2.37 µM (inactive) | GI50 (HCT-116): 3.93 µM (inactive) | GI50 (HCT-15): 4.78 µM | GI50 (HL-60): 1.91 µM (inactive) | GI50 (HOP-62): 0.619 µM (active) | GI50 (HOP-92): 3.29 µM (inactive) | GI50 (HT-29): 6.15 µM (inactive) | GI50 (Hs-578T): 12.1 µM (inactive) | GI50 (IGROV-1): 7.48 µM (inactive) | GI50 (K562): 3.3 µM (inactive) | GI50 (KM12): 0.841 µM (active) | GI50 (LOX IMVI): 8.34 µM (inactive) | GI50 (M14): 6.75 µM (inactive) | GI50 (MCF7): 3.78 µM (inactive) | GI50 (MDA-MB-435): 8.38 µM (inactive) | GI50 (MDA-N): 6.93 µM (inactive) | GI50 (MOLT-4): 3.66 µM (inactive) | GI50 (Malme-3M): 7.43 µM (inactive) | GI50 (NCI-H226): 1.16 µM (inactive) | GI50 (NCI-H23): 5.94 µM (inactive) | GI50 (NCI-H460): 0.519 µM (active) | GI50 (NCI-H522): 3.18 µM (inactive) | GI50 (NCI/ADR-RES): 6.03 µM (inactive) | GI50 (OVCAR-3): 1.76 µM (inactive) | GI50 (OVCAR-4): 5.33 µM (inactive) | GI50 (OVCAR-5): 1.61 µM (inactive) | GI50 (OVCAR-8): 2.82 µM (inactive) | GI50 (PC-3): 3.22 µM (inactive) | GI50 (RPMI-8226): 3.59 µM (inactive) | GI50 (RXF 393): 3.6 µM (inactive) | GI50 (SF-268): 10.9 µM (inactive) | GI50 (SF-295): 0.45 µM (active) | GI50 (SF-539): 4.09 µM (inactive) | GI50 (SK-MEL-28): 5.9 µM (inactive) | GI50 (SK-MEL-2): 4.53 µM (inactive) | GI50 (SK-MEL-5): 1.18 µM (inactive) | GI50 (SK-OV-3): 0.403 µM (active) | GI50 (SN12C): 3.08 µM (inactive) | GI50 (SNB-19): 10.6 µM (inactive) | GI50 (SNB-75): 4.32 µM (inactive) | GI50 (SR): 2.51 µM (inactive) | GI50 (SW-620): 9.86 µM (inactive) | GI50 (T47D): 2.48 µM (inactive) | GI50 (UACC-257): 3.65 µM (inactive) | GI50 (UACC-62): 10.9 µM (inactive) | GI50 (UO-31): 8.22 µM (inactive)

O=C(Nn1c(-c2ccccc2)nc2ccccc2c1=O)c1ccc(CS)cc1
GI50 (786-0): 24.4 µM (inactive) | GI50 (A498): 24.5 µM (inactive) | GI50 (A549): 36.7 µM (inactive) | GI50 (ACHN): 54.5 µM (inactive) | GI50 (BT-549): 22.4 µM (inactive) | GI50 (CCRF-CEM): 5.89 µM (inactive) | GI50 (COLO 205): 60.3 µM (inactive) | GI50 (DU-145): 39.4 µM (inactive) | GI50 (EKVX): 36.7 µM (inactive) | GI50 (HCC 2998): > 100 µM (inactive) | GI50 (HCT-116): 39.4 µM (inactive) | GI50 (HL-60): 16 µM (inactive) | GI50 (HOP-62): > 100 µM (inactive) | GI50 (HOP-92): 34.9 µM (inactive) | GI50 (HT-29): 53 µM (inactive) | GI50 (Hs-578T): 35.6 µM (inactive) | GI50 (IGROV-1): 26.1 µM (inactive) | GI50 (K562): 38.2 µM (inactive) | GI50 (KM12): 81.1 µM (inactive) | GI50 (LOX IMVI): 1.67 µM (inactive) | GI50 (M14): 47.6 µM (inactive) | GI50 (MCF7): 29.8 µM (inactive) | GI50 (MDA-MB-231): 37 µM (inactive) | GI50 (MDA-MB-435): 41.8 µM (inactive) | GI50 (MDA-N): 61.2 µM (inactive) | GI50 (MOLT-4): 16.6 µM (inactive) | GI50 (Malme-3M): 36.6 µM (inactive) | GI50 (NCI-H226): 37.7 µM (inactive) | GI50 (NCI-H23): 49.9 µM (inactive) | GI50 (NCI-H460): > 100 µM (inactive) | GI50 (NCI-H522): 52.2 µM (inactive) | GI50 (OVCAR-3): 67.6 µM (inactive) | GI50 (OVCAR-4): 98.4 µM (inactive) | GI50 (OVCAR-5): > 100 µM (inactive) | GI50 (OVCAR-8): 57.1 µM (inactive) | GI50 (PC-3): 20.2 µM (inactive) | GI50 (RPMI-8226): 33.2 µM (inactive) | GI50 (RXF 393): 44.7 µM (inactive) | GI50 (SF-268): 26.2 µM (inactive) | GI50 (SF-295): > 100 µM (inactive) | GI50 (SF-539): 24.5 µM (inactive) | GI50 (SK-MEL-28): 69.8 µM (inactive) | GI50 (SK-MEL-5): 11.8 µM (inactive) | GI50 (SK-OV-3): 82.8 µM (inactive) | GI50 (SN12C): 36.6 µM (inactive) | GI50 (SNB-19): > 100 µM (inactive) | GI50 (SNB-75): 39.7 µM (inactive) | GI50 (SR): 19.5 µM (inactive) | GI50 (SW-620): 31.1 µM (inactive) | GI50 (T47D): > 100 µM (inactive) | GI50 (TK-10): > 100 µM (inactive) | GI50 (U-251): 27.6 µM (inactive) | GI50 (UACC-257): > 100 µM (inactive) | GI50 (UACC-62): 27.7 µM (inactive) | GI50 (UO-31): 46.3 µM (inactive)

Nc1c(-c2ccc(Cl)c(Cl)c2)c2ccc([N+](=O)[O-])cc2c(=O)n1-c1nc2ccccc2s1
GI50 (786-0): 0.767 µM (active) | GI50 (A498): 0.566 µM (active) | GI50 (A549): 0.407 µM (active) | GI50 (ACHN): 0.448 µM (active) | GI50 (BT-549): 0.762 µM (active) | GI50 (CAKI-1): 0.719 µM (active) | GI50 (CCRF-CEM): 0.223 µM (active) | GI50 (COLO 205): 1.5 µM (inactive) | GI50 (DU-145): 0.867 µM (active) | GI50 (EKVX): 0.446 µM (active) | GI50 (HCC 2998): 18.6 µM (inactive) | GI50 (HCT-116): 0.202 µM (active) | GI50 (HCT-15): 0.46 µM | GI50 (HL-60): 0.318 µM (active) | GI50 (HOP-62): 1.06 µM (active) | GI50 (HOP-92): 0.296 µM (active) | GI50 (HT-29): 0.824 µM (active) | GI50 (IGROV-1): 0.796 µM (active) | GI50 (K562): 0.367 µM (active) | GI50 (KM12): 0.64 µM (active) | GI50 (LOX IMVI): 0.538 µM (active) | GI50 (M14): 0.675 µM (active) | GI50 (MCF7): 0.401 µM (active) | GI50 (MDA-MB-231): 0.614 µM (active) | GI50 (MDA-MB-435): 0.582 µM (active) | GI50 (MDA-N): 0.697 µM (active) | GI50 (MOLT-4): 1.12 µM (active) | GI50 (Malme-3M): 0.403 µM (active) | GI50 (NCI-H226): 0.586 µM (active) | GI50 (NCI-H23): 0.266 µM (active) | GI50 (NCI-H460): 0.386 µM (active) | GI50 (NCI-H522): 0.193 µM (active) | GI50 (NCI/ADR-RES): 0.577 µM (active) | GI50 (OVCAR-3): 0.382 µM (active) | GI50 (OVCAR-4): 1.19 µM (inactive) | GI50 (OVCAR-5): 1.92 µM (inactive) | GI50 (OVCAR-8): 0.366 µM (active) | GI50 (PC-3): 0.311 µM (active) | GI50 (RPMI-8226): 0.391 µM (active) | GI50 (RXF 393): 0.689 µM (active) | GI50 (SF-268): 0.531 µM (active) | GI50 (SF-295): 0.551 µM (active) | GI50 (SF-539): 2.65 µM (inactive) | GI50 (SK-MEL-28): 18.2 µM (inactive) | GI50 (SK-MEL-2): 0.369 µM (active) | GI50 (SK-MEL-5): 0.328 µM (active) | GI50 (SK-OV-3): 0.689 µM (active) | GI50 (SN12C): 0.335 µM (active) | GI50 (SNB-19): 0.418 µM (active) | GI50 (SNB-75): 1.07 µM (active) | GI50 (SR): 0.417 µM (active) | GI50 (SW-620): 0.574 µM (active) | GI50 (T47D): 0.386 µM (active) | GI50 (TK-10): 0.594 µM (active) | GI50 (U-251): 0.425 µM (active) | GI50 (UACC-257): 0.471 µM (active) | GI50 (UACC-62): 0.419 µM (active) | GI50 (UO-31): 0.445 µM (active)
